The results in this text go back to patent publication US8022072B2, “Azolylmethylidenehydrazine derivative and use thereof” (Kaken Pharmaceutical Co., Ltd., priority 2007, dated 2011).

For orientation: MIC means the lowest concentration found to suppress growth.

Holding throughout (format): cell-based
Test [1] relates to Trichophyton mentagrophytes KD-04. The test is described as follows: Antifungal activity evaluation test, MIC, Trichophyton mentagrophytes KD-04. The settings on record: KD04, 168 h, Sabouraud Dextrose Broth, 30° C., 7 days, visual, read-out: MIC T. men. KD-04. On the procedure: (§1) The minimum inhibitory concentration (MIC) for Trichophyton mentagrophytes, Trichophyton rubrum, and Malassezia furfur was measured according to the following procedure. • Test compound solution: A test compound was dissolved in dimethyl sulfoxide (DMSO) at a concentration of 5 mg/mL as a stock solution. […] Then, as a test medium, a fungal solution of Trichophyton species was 100-fold diluted with Sabouraud Dextrose Broth (Difco), and a fungal solution of Malassezia furfur IFO-0656 was 100-fold diluted with MU medium to give each inoculum (2×10^4 cells/mL). • Measurement of MIC of Trichophyton fungi: Sabouraud Dextrose Broth (Difco) was dispensed by 100 μL to a given well of a 96 well flat microplate. Then, a test compound solution (2 μL) was added, and the mixture was thoroughly mixed with a plate mixer. A fungal solution (100 μL) was inoculated and cultured at 30° C. for 7 days. The presence or absence of the cell growth was visually observed, and the minimum medicament concentration at which the cell growth was prevented was taken as MIC (μg/mL). • Measurement of MIC of Malassezia furfur: Since the urease activity of this fungus and the fungus growth rate are co-related, MIC was evaluated by the following method using urease activity as an index. MU medium was dispensed by 100 μL to a given well of a 96 well flat microplate. Then, a test compound solution (2 μL) was added, and the mixture was thoroughly mixed with a plate mixer. A fungal solution (100 μL) was inoculated and cultured at 30° C. The culture was stopped on day 4 or 5 of culture when the color tone of the MU medium changes from yellow to red in visual observation of the fungus growth in a well free of addition of a test substance. Then the plate was stirred until the fungus became uniform, and the urease activity was measured based on the measurement of absorbance at 550 nm using a plate reader.

Test [2] concerns Trichophyton mentagrophytes SM-110. The test is described as follows: Antifungal activity evaluation test, MIC, Trichophyton mentagrophytes SM-110. The conditions noted are these: SM110, 168 h, Sabouraud Dextrose Broth, 30° C., 7 days, visual, read-out: MIC T. men. SM-110. On the procedure:
as §1

Test [3] has as its system Trichophyton rubrum KD-101. As to the kind of experiment: Antifungal activity evaluation test, MIC, Trichophyton rubrum KD-101. The settings on record: KD101, 168 h, Sabouraud Dextrose Broth, 30° C., 7 days, visual, read-out: MIC T. rub. KD-101. The procedure:
as §1

Test [4] concerns Trichophyton rubrum KD-107. As to the kind of experiment: Antifungal activity evaluation test, MIC, Trichophyton rubrum KD-107. The conditions noted are these: KD107, 168 h, Sabouraud Dextrose Broth, 30° C., 7 days, visual, read-out: MIC T. rub. KD-107. On the procedure: as §1
Test [5] deals with Malassezia furfur IFO-0656. The test is described as follows: Antifungal activity evaluation test, MIC by urease activity, Malassezia furfur IFO-0656. The conditions noted are these: IFO0656, 96 h, MU medium, 30° C., day 4 or 5, urease activity of 20% or below, read-out: MIC M. fur. IFO-0656. The procedure:
as §1

Structures are written as SMILES. In brackets after ≈: the same amount, converted by molar mass.

For the compound `CC(C)Oc1ccccc1C(=NN(C)C)n1ccnc1` [Compound No. 19, N′-[1-imidazol-1-yl-1-(2-isopropoxyphenyl)methylidene]-N,N-dimethylhydrazine], the MIC was 0.2 µg/mL (≈ 0.734 µM) in test [1]; 0.2 µg/mL (≈ 0.734 µM) in test [2]; 0.78 µg/mL (≈ 2.86 µM) in test [3]; 0.2 µg/mL (≈ 0.734 µM) in test [4]; 25 µg/mL (≈ 91.8 µM) in test [5].

With `CCCCCOc1ccc(F)cc1C(=NN(C)C)n1ccnc1` [Compound No. 25, N′-[1-(3-fluoro-6-pentyloxyphenyl)-1-imidazol-1-ylmethylidene]-N,N-dimethylhydrazine], the MIC in test [1] was 0.05 µg/mL (≈ 0.157 µM); in test [2], 0.1 µg/mL (≈ 0.314 µM); in test [3], 0.05 µg/mL (≈ 0.157 µM); in test [4], 0.05 µg/mL (≈ 0.157 µM); in test [5], 0.39 µg/mL (≈ 1.22 µM).

As to `CN(C)N=C(c1ccccc1OCc1ccccc1)n1ccnc1` [Compound No. 34, N′-[1-(2-benzyloxyphenyl)-1-imidazol-1-ylmethylidene]-N,N-dimethylhydrazine], the MIC in test [1] is 0.2 µg/mL (≈ 0.624 µM); in test [2], 0.2 µg/mL (≈ 0.624 µM); in test [3] it was 0.2 µg/mL (≈ 0.624 µM); in test [4], 0.1 µg/mL (≈ 0.312 µM); in test [5], 0.62 µg/mL (≈ 1.94 µM).

Take `COc1cccc(COc2ccccc2C(=NN(C)C)n2ccnc2)c1` [Compound No. 53, N′-[1-imidazol-1-yl-1-[2-(3-methoxybenzyloxy)phenyl]methylidene]-N,N-dimethylhydrazine]: the MIC in test [1] was found to be 0.2 µg/mL (≈ 0.571 µM); in test [2], 0.39 µg/mL (≈ 1.11 µM); in test [3], 0.2 µg/mL (≈ 0.571 µM); in test [4], 0.1 µg/mL (≈ 0.285 µM); in test [5] it was 0.78 µg/mL (≈ 2.23 µM).

As to `CN(C)N=C(c1ccccc1OCCCc1ccccc1)n1ccnc1` [Compound No. 61, N′-[1-imidazol-1-yl-1-[2-(3-phenylpropoxy)phenyl]methylidene]-N,N-dimethylhydrazine], the MIC is 0.05 µg/mL (≈ 0.143 µM) in test [1]; 0.1 µg/mL (≈ 0.287 µM) in test [2]; 0.05 µg/mL (≈ 0.143 µM) in test [3]; 0.025 µg/mL (≈ 0.0717 µM) in test [4]; 0.2 µg/mL (≈ 0.574 µM) in test [5].

As to `CSc1ccccc1C(=NN(C)C)n1ccnc1` [Compound No. 79, N′-[1-imidazol-1-yl-1-(2-methylthiophenyl)methylidene]-N,N-dimethylhydrazine], the minimal inhibitory concentration (MIC) in test [1] was 0.39 µg/mL (≈ 1.5 µM); in test [2], 0.39 µg/mL (≈ 1.5 µM); in test [3] it was 0.39 µg/mL (≈ 1.5 µM); in test [4], 0.39 µg/mL (≈ 1.5 µM); in test [5], over 25 µg/mL.

As for `CN(C)N=C(c1ccccc1SCCOc1ccccc1)n1ccnc1` [Compound No. 85, N′-[1-imidazol-1-yl-1-[2-(2-phenoxyethylthio)phenyl]methylidene]-N,N-dimethylhydrazine], the MIC in test [1] was determined as 0.1 µg/mL (≈ 0.273 µM); in test [2] it was 0.2 µg/mL (≈ 0.546 µM); in test [3] it was 0.1 µg/mL (≈ 0.273 µM); in test [4], 0.05 µg/mL (≈ 0.136 µM); in test [5], 0.05 µg/mL (≈ 0.136 µM).

Turning to `CCCCCN(C)c1ccccc1C(=NN(C)C)n1ccnc1` [Compound No. 87, N′-[1-imidazol-1-yl-1-[2-(N-methyl-N-pentylamino)phenyl]methylidene]-N,N-dimethylhydrazine], the MIC was determined as 0.05 µg/mL (≈ 0.16 µM) in test [1]; 0.1 µg/mL (≈ 0.319 µM) in test [2]; 0.05 µg/mL (≈ 0.16 µM) in test [3]; 0.05 µg/mL (≈ 0.16 µM) in test [4]; 0.78 µg/mL (≈ 2.49 µM) in test [5].

Consider `CCCCCOc1ccc2ccccc2c1C(=NN(C)C)n1ccnc1` [Compound No. 93, N′-[1-imidazol-1-yl-1-(2-pentyloxynaphthalen-1-yl)methylidene]-N,N-dimethylhydrazine], for which the MIC in test [1] was determined as 0.2 µg/mL (≈ 0.571 µM); in test [2] it was 0.39 µg/mL (≈ 1.11 µM); in test [3] it was 0.1 µg/mL (≈ 0.285 µM); in test [4], 0.1 µg/mL (≈ 0.285 µM); in test [5], 6.25 µg/mL (≈ 17.8 µM).

On to `CCCCCOc1cccnc1C(=NN(C)C)n1ccnc1` [Compound No. 95, N′-[1-imidazol-1-yl-1-(3-pentyloxypyridin-2-yl)methylidene]-N,N-dimethylhydrazine], for which the MIC in test [1] is 1.56 µg/mL (≈ 5.18 µM); in test [2] it was 3.13 µg/mL (≈ 10.4 µM); in test [3], 1.56 µg/mL (≈ 5.18 µM); in test [4], 0.78 µg/mL (≈ 2.59 µM); in test [5] it was over 25 µg/mL.

In the case of `CCCCCCn1cccc1C(=NN(C)C)n1ccnc1` [Compound No. 104, N′-[1-(1-hexylpyrrol-2-yl)-1-imidazol-1-ylmethylidene]-N,N-dimethylhydrazine], the MIC in test [1] was 0.025 µg/mL (≈ 0.087 µM); in test [2], 0.05 µg/mL (≈ 0.174 µM); in test [3], 0.025 µg/mL (≈ 0.087 µM); in test [4] it was 0.025 µg/mL (≈ 0.087 µM); in test [5] it was over 25 µg/mL.

Take `CCN(CC)N=C(c1ccccc1OCc1ccc(Cl)cc1)n1ccnc1` [Compound No. 118, N′-[1-[2-(4-chlorobenzyloxy)phenyl]-1-imidazol-1-ylmethylidene]-N,N-diethylhydrazine]: the MIC is 0.1 µg/mL (≈ 0.261 µM) in test [1]; 0.2 µg/mL (≈ 0.522 µM) in test [2]; 0.1 µg/mL (≈ 0.261 µM) in test [3]; 0.05 µg/mL (≈ 0.131 µM) in test [4]; 0.39 µg/mL (≈ 1.02 µM) in test [5].

As to `CN(N=C(c1ccccc1Cl)n1ccnc1)c1ccc(Cl)cc1` [Compound No. 141, N-(4-chlorophenyl)-N′-[1-(2-chlorophenyl)-1-imidazol-1-ylmethylidene]-N-methylhydrazine], the MIC in test [1] was 0.2 µg/mL (≈ 0.579 µM); in test [2], 0.39 µg/mL (≈ 1.13 µM); in test [3], 0.39 µg/mL (≈ 1.13 µM); in test [4], 0.2 µg/mL (≈ 0.579 µM); in test [5], over 10 µg/mL.

As to `Fc1ccc(COc2ccccc2C(=NN2CCCC2)n2ccnc2)cc1` [Compound No. 158, [1-[2-(4-fluorobenzyloxy)phenyl]-1-imidazol-1-ylmethylidene]pyrrolidin-1-ylamine], the MIC in test [1] was found to be 0.2 µg/mL (≈ 0.549 µM); in test [2], 0.2 µg/mL (≈ 0.549 µM); in test [3] it was 0.2 µg/mL (≈ 0.549 µM); in test [4], 0.1 µg/mL (≈ 0.274 µM); in test [5], 1.56 µg/mL (≈ 4.28 µM).

For `CCCCCOc1ccccc1C(=NN1CCCCC1)n1ccnc1` [Compound No. 173, [1-imidazol-1-yl-1-(2-pentyloxyphenyl)methylidene]piperidin-1-ylamine], the MIC in test [1] is 0.2 µg/mL (≈ 0.587 µM); in test [2] it was 0.2 µg/mL (≈ 0.587 µM); in test [3], 0.1 µg/mL (≈ 0.294 µM); in test [4], 0.1 µg/mL (≈ 0.294 µM); in test [5], 0.39 µg/mL (≈ 1.15 µM).

As for `CCc1ccccc1C(=NN1CCCCCC1)n1ccnc1` [Compound No. 184, [1-(2-ethylphenyl)-1-imidazol-1-ylmethylidene]homopiperidin-1-ylamine], the MIC in test [1] turned out to be 0.05 µg/mL (≈ 0.169 µM); in test [2] it was 0.1 µg/mL (≈ 0.337 µM); in test [3] it was 0.05 µg/mL (≈ 0.169 µM); in test [4] it was 0.05 µg/mL (≈ 0.169 µM); in test [5] it was 1.56 µg/mL (≈ 5.26 µM).

With `CC(C)Oc1ccccc1C(=NN1CCCCCC1)n1ccnc1` [Compound No. 198, homopiperidin-1-yl-[1-imidazol-1-yl-1-(2-isopropoxyphenyl)methylidene]amine], the MIC was determined as 0.1 µg/mL (≈ 0.306 µM) in test [1]; 0.2 µg/mL (≈ 0.613 µM) in test [2]; 0.2 µg/mL (≈ 0.613 µM) in test [3]; 0.1 µg/mL (≈ 0.306 µM) in test [4]; 0.78 µg/mL (≈ 2.39 µM) in test [5].

On to `C=CCOc1ccccc1C(=NN1CCCCCC1)n1ccnc1` [Compound No. 200, homopiperidin-1-yl-[1-imidazol-1-yl-1-[2-(2-propenyloxy)phenyl]methylidene]amine], for which the MIC in test [1] was 0.1 µg/mL (≈ 0.308 µM); in test [2] it was 0.1 µg/mL (≈ 0.308 µM); in test [3] it was 0.1 µg/mL (≈ 0.308 µM); in test [4], 0.1 µg/mL (≈ 0.308 µM); in test [5], 0.2 µg/mL (≈ 0.616 µM).

In the case of `CCCCCOc1ccc(OC)cc1C(=NN1CCCCCC1)n1ccnc1` [Compound No. 211, homopiperidin-1-yl-[1-imidazol-1-yl-1-(5-methoxy-2-pentyloxyphenyl)methylidene]amine], the MIC was 0.2 µg/mL (≈ 0.52 µM) in test [1]; 0.39 µg/mL (≈ 1.01 µM) in test [2]; 0.2 µg/mL (≈ 0.52 µM) in test [3]; 0.1 µg/mL (≈ 0.26 µM) in test [4]; 1.56 µg/mL (≈ 4.06 µM) in test [5].

Take `c1ccc(Oc2ccccc2C(=NN2CCCCCC2)n2ccnc2)cc1` [Compound No. 212, homopiperidin-1-yl-[1-imidazol-1-yl-1-(2-phenoxyphenyl)methylidene]amine]: the MIC in test [1] amounted to 0.39 µg/mL (≈ 1.08 µM); in test [2] it was 0.78 µg/mL (≈ 2.16 µM); in test [3], 0.78 µg/mL (≈ 2.16 µM); in test [4], 0.39 µg/mL (≈ 1.08 µM); in test [5], 25 µg/mL (≈ 69.4 µM).
